Test systems include LOX IMVI melanoma; 786-0 renal; MDA-MB-231 breast; HOP-92 NSCLC; NCI-H460 lung; ACHN renal; U251 CNS; UACC-257 melanoma; K-562 leukemia; HCT-15 colon.
Holding throughout (assay): NCI tumour cell line growth inhibition, 48 h

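Exposure lasted 48 hours, with cells grown in 96-well plates and compounds tested at five concentrations. Abbreviation: GI50, concentration required for 50% inhibition of growth. TGI: total growth inhibition.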

Turning to `Fc1ccc(Nc2nc3nonc3nc2Nc2ccc(I)cc2)cc1`, the GI50 in the test on LOX IMVI melanoma was 0.349 µM; in the test on 786-0 renal, 0.298 µM; in the test on MDA-MB-231 breast it was 0.31 µM; in the test on HOP-92 NSCLC it was 0.04 µM; with NCI-H460 lung, 0.312 µM; in the test on ACHN renal it was 0.171 µM. Also, the GI50 in the test with U251 CNS was 0.293 µM; in the test with UACC-257 melanoma, 0.207 µM; in the test on K-562 leukemia, 0.181 µM; in the test with HCT-15 colon, 0.302 µM. For the same molecule, the TGI amounted to 1.44 µM with LOX IMVI melanoma; 2.59 µM in the test with 786-0 renal; 1.72 µM in the test on MDA-MB-231 breast; 0.326 µM with HOP-92 NSCLC; 12.4 µM with NCI-H460 lung; 3.43 µM in the test on ACHN renal. The TGI in the test on U251 CNS was 10.8 µM; with UACC-257 melanoma, 0.756 µM; in the test with K-562 leukemia, 11 µM; in the test with HCT-15 colon, 10.5 µM.

As for `Cc1[nH]nc(C(=O)N/N=C/c2ccccc2Cl)c1N=NN(C)C`, the TGI in the test with LOX IMVI melanoma, with 786-0 renal, in the test with MDA-MB-231 breast, in the test with HOP-92 NSCLC, in the test on NCI-H460 lung and in the test on ACHN renal was greater than 100 µM throughout. For the same molecule, the TGI with U251 CNS, in the test on UACC-257 melanoma, in the test with K-562 leukemia and in the test with HCT-15 colon was greater than 100 µM each time.

With `O=C(NN1C(=O)CSC1c1c(Cl)cccc1Cl)C(O)c1ccccc1` (stereo not drawn), the GI50 in the test with LOX IMVI melanoma is 64.7 µM; with 786-0 renal, 69.3 µM; in the test on MDA-MB-231 breast, 19.2 µM; in the test on HOP-92 NSCLC it was 20.9 µM; in the test on NCI-H460 lung, 40.4 µM; in the test on ACHN renal, 28.4 µM. Moreover, the GI50 with U251 CNS was 37.3 µM; in the test on UACC-257 melanoma it was 31 µM; with K-562 leukemia, 29.7 µM; in the test on HCT-15 colon, 30.5 µM. Besides, the TGI with LOX IMVI melanoma was greater than 100 µM; in the test on 786-0 renal, greater than 100 µM; in the test with MDA-MB-231 breast, greater than 100 µM; with HOP-92 NSCLC, 98.9 µM; with NCI-H460 lung, greater than 100 µM; with ACHN renal, greater than 100 µM. For the same molecule, the TGI in the test on U251 CNS is greater than 100 µM; in the test on UACC-257 melanoma, 94.5 µM; in the test on K-562 leukemia, 76 µM; with HCT-15 colon, greater than 100 µM.

As to `CN(C)C1CN(C(=O)c2cc(-c3ccc4ncnc(N5CCc6cc(F)c(Cl)cc65)c4c3)cnc2N)C1`, the GI50 with LOX IMVI melanoma was 0.458 µM; in the test on 786-0 renal it was 0.436 µM; in the test on MDA-MB-231 breast, 0.931 µM; in the test with HOP-92 NSCLC it was 0.331 µM; with NCI-H460 lung it was 0.574 µM; in the test with ACHN renal, 0.443 µM. Besides, the GI50 in the test on U251 CNS is 1.34 µM; with UACC-257 melanoma, 1.54 µM; with K-562 leukemia it was 0.86 µM; with HCT-15 colon, 0.495 µM. Also, the TGI was greater than 100 µM in the test with LOX IMVI melanoma; greater than 100 µM in the test with 786-0 renal; greater than 100 µM with MDA-MB-231 breast; 2.17 µM with HOP-92 NSCLC; greater than 100 µM in the test with NCI-H460 lung; greater than 100 µM in the test with ACHN renal. Besides, the TGI in the test on U251 CNS is greater than 100 µM; in the test with UACC-257 melanoma, greater than 28.1 µM; in the test with K-562 leukemia, greater than 100 µM; in the test with HCT-15 colon, greater than 100 µM.

Consider `Nc1n[nH]c2ccc([C@@H]3Nc4ccc5cn[nH]c5c4[C@H]4C5CCC(C5)[C@@H]34)cc12` (stereo partly drawn), for which the GI50 in the test on LOX IMVI melanoma is 0.567 µM; in the test with 786-0 renal, 0.95 µM; in the test on MDA-MB-231 breast, 0.874 µM; in the test on HOP-92 NSCLC, 2.14 µM; with NCI-H460 lung, 0.382 µM; with ACHN renal, 0.797 µM. In addition, the GI50 with U251 CNS was 0.436 µM; in the test with UACC-257 melanoma, 12.5 µM; in the test on K-562 leukemia, 0.252 µM; in the test with HCT-15 colon it was 0.414 µM. Also, the TGI with LOX IMVI melanoma is greater than 81.2 µM; in the test with 786-0 renal, 98.6 µM; in the test on MDA-MB-231 breast it was greater than 53.4 µM; in the test on HOP-92 NSCLC it was greater than 89.4 µM; in the test with NCI-H460 lung, greater than 100 µM; in the test on ACHN renal, greater than 91.9 µM. For the same molecule, the TGI in the test with U251 CNS, in the test with UACC-257 melanoma, in the test on K-562 leukemia and in the test with HCT-15 colon was greater than 100 µM in each case.

For the molecule `NC(=O)c1csc(-c2ccc(CO)o2)n1`, the TGI with LOX IMVI melanoma, in the test on 786-0 renal, in the test with MDA-MB-231 breast, in the test on HOP-92 NSCLC, with NCI-H460 lung and with ACHN renal was greater than 100 µM each time. Also, the TGI in the test with U251 CNS, in the test on UACC-257 melanoma, with K-562 leukemia and with HCT-15 colon was greater than 100 µM in each case.

As for `O=c1/c(=C\c2ccc(Br)cc2)sc2n1C(c1ccc(Br)cc1)C1=C(N=2)c2ccc3ccccc3c2OCC1` (stereo not drawn), the GI50 in the test with LOX IMVI melanoma, in the test with 786-0 renal, with MDA-MB-231 breast, with HOP-92 NSCLC, with NCI-H460 lung and in the test with ACHN renal was greater than 100 µM throughout. Besides, the GI50 in the test with U251 CNS, in the test with UACC-257 melanoma, with K-562 leukemia and in the test with HCT-15 colon was greater than 100 µM in each case. The TGI in the test on LOX IMVI melanoma, with 786-0 renal, in the test on MDA-MB-231 breast, in the test on HOP-92 NSCLC, in the test on NCI-H460 lung and in the test on ACHN renal was greater than 100 µM in each case. The TGI with U251 CNS, in the test with UACC-257 melanoma, in the test on K-562 leukemia and in the test on HCT-15 colon was greater than 100 µM throughout.

Consider `Cc1cc(C)c2c(c1)N(C)c1ncnc(-n3cnc4cc(C)ccc43)c1CC2C` (stereo not drawn), for which the GI50 in the test with LOX IMVI melanoma was 4.82 µM; with 786-0 renal, 3.53 µM; in the test with MDA-MB-231 breast, 3.03 µM; with HOP-92 NSCLC it was 4.1 µM; in the test on NCI-H460 lung, 3.4 µM; in the test on ACHN renal, 4.07 µM. Further, the GI50 is 3.55 µM in the test on U251 CNS, 11.5 µM with UACC-257 melanoma, 1.5 µM with K-562 leukemia and 3.58 µM in the test on HCT-15 colon. Besides, the TGI in the test with LOX IMVI melanoma was 33.4 µM; with 786-0 renal it was 15.4 µM; in the test with MDA-MB-231 breast, 14.6 µM; with HOP-92 NSCLC it was 32.9 µM; with NCI-H460 lung, 11.4 µM; with ACHN renal it was 18.3 µM. Further, the TGI with U251 CNS was 19.4 µM; in the test with UACC-257 melanoma, 38.5 µM; in the test on K-562 leukemia it was greater than 100 µM; in the test on HCT-15 colon, 36.3 µM.

Take `COc1cc2c(cc1OCCCN1CCN(C(=S)SCCC(C#N)(c3ccccc3)c3ccccc3)CC1)N=C[C@@H]1CCCN1C2=O`: the GI50 is 0.721 µM in the test on LOX IMVI melanoma; 0.493 µM in the test on 786-0 renal; 1.32 µM with MDA-MB-231 breast; 0.545 µM in the test with HOP-92 NSCLC; 0.891 µM with NCI-H460 lung; 0.875 µM in the test with ACHN renal. The GI50 was 0.405 µM with U251 CNS, 1.99 µM in the test on UACC-257 melanoma, 0.573 µM in the test with K-562 leukemia and 1.68 µM in the test with HCT-15 colon. Besides, the TGI in the test on LOX IMVI melanoma came out at 2.03 µM; in the test on 786-0 renal, 1.08 µM; in the test with MDA-MB-231 breast, 3.19 µM; in the test with HOP-92 NSCLC it was 3.85 µM; with ACHN renal, 2.12 µM; in the test with U251 CNS, 1.43 µM. Moreover, the results for the TGI in the test on UACC-257 melanoma and in the test with HCT-15 colon were 3.9 µM and 3.48 µM, respectively.

`C[C@]12CC[C@@H]3c4ccc(OC(=O)N(CCCl)CCCl)cc4CC[C@H]3[C@@H]1CC[C@@H]2OP(=O)(O)O`: the GI50 is 46.2 µM in the test on LOX IMVI melanoma; 43.9 µM with 786-0 renal; 26.8 µM in the test on MDA-MB-231 breast; greater than 100 µM in the test with HOP-92 NSCLC; 36.1 µM with NCI-H460 lung; 62.6 µM with ACHN renal. Moreover, the GI50 in the test with U251 CNS was 33.9 µM; with UACC-257 melanoma it was 44.5 µM; with K-562 leukemia, greater than 73.5 µM; in the test with HCT-15 colon it was 43.5 µM. Moreover, the TGI with LOX IMVI melanoma is greater than 100 µM; in the test with 786-0 renal, greater than 100 µM; with MDA-MB-231 breast, greater than 64.3 µM; with HOP-92 NSCLC it was greater than 100 µM; with NCI-H460 lung, greater than 100 µM; in the test on ACHN renal, greater than 100 µM. Besides, the TGI with U251 CNS was greater than 100 µM; in the test with UACC-257 melanoma, greater than 80.6 µM; in the test on K-562 leukemia it was greater than 100 µM; in the test on HCT-15 colon it was greater than 100 µM.

Turning to `C=C(Br)COc1ccc2c(C)cc(=O)oc2c1`, the TGI in the test with LOX IMVI melanoma, with 786-0 renal, with MDA-MB-231 breast, in the test with HOP-92 NSCLC, in the test on NCI-H460 lung and in the test on ACHN renal was greater than 100 µM in each case. Further, the TGI in the test with U251 CNS, in the test on UACC-257 melanoma, in the test with K-562 leukemia and in the test on HCT-15 colon was greater than 100 µM each time.

For the molecule `COCCn1c2c([n+](Cc3cnccn3)c1C)C(=O)c1ccccc1C2=O`, the GI50 is less than 0.01 µM in the test with LOX IMVI melanoma; 0.0143 µM in the test with 786-0 renal; less than 0.01 µM in the test with MDA-MB-231 breast; 0.0209 µM in the test on HOP-92 NSCLC; 0.0208 µM in the test on NCI-H460 lung; 0.04 µM with ACHN renal. For the same molecule, the GI50 in the test on U251 CNS was less than 0.01 µM; in the test on UACC-257 melanoma, less than 0.01 µM; with K-562 leukemia, less than 0.01 µM; in the test on HCT-15 colon, 0.251 µM. The TGI was less than 0.0118 µM in the test on LOX IMVI melanoma; 0.0992 µM in the test with 786-0 renal; 0.013 µM in the test on MDA-MB-231 breast; 0.0549 µM in the test with HOP-92 NSCLC; 0.112 µM with NCI-H460 lung; 2.11 µM in the test on ACHN renal. Besides, the TGI in the test on U251 CNS is less than 0.01 µM; in the test on UACC-257 melanoma it was less than 0.01 µM; with K-562 leukemia it was 5.6 µM; in the test on HCT-15 colon it was greater than 100 µM.

As to `c1ccc(CC(Nc2cccnc2)c2ccccc2)cc1` (stereo not drawn), the TGI with LOX IMVI melanoma is 31.9 µM; in the test on 786-0 renal it was 54.4 µM; in the test with MDA-MB-231 breast, 48.7 µM; in the test with HOP-92 NSCLC it was 35.9 µM; with NCI-H460 lung, 52.9 µM; in the test with ACHN renal, greater than 100 µM. The TGI was 42 µM with U251 CNS, 49.8 µM in the test on UACC-257 melanoma, greater than 100 µM in the test on K-562 leukemia and greater than 100 µM in the test on HCT-15 colon.

The values are drawn from PubChem BioAssay (NCI).
